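Each compound was tested at five concentrations against cells in 96-well plates for 48 hours. TGI denotes the concentration required for complete inhibition of growth.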
Assays:
Assay in all cases: NCI tumour cell line growth inhibition, 48 h
[1] = system: COLO 205 colon
[2] = system: SK-MEL-5 melanoma
[3] = system: SK-MEL-28 melanoma
[4] = system: MOLT-4 leukemia
[5] = system: RXF 393 renal
[6] = system: DU-145 prostate
[7] = system: LOX IMVI melanoma
[8] = system: DMS 273 small cell lung
[9] = system: SNB-19 CNS
[10] = system: HCC-2998 colon
[11] = system: HOP-18 NSCLC
[12] = system: UACC-62 melanoma
[13] = system: NCI-H23 lung
[14] = system: OVCAR-4 ovarian
[15] = system: OVCAR-5 ovarian
[16] = system: A549 NSCLC
[17] = system: DMS 114 small cell lung
[18] = system: MALME-3M melanoma
[19] = system: NCI-H522 lung
[20] = system: RPMI-8226 leukemia
[21] = system: KM12 colon
[22] = system: LXFL 529 NSCLC
[23] = system: KM20L2 colon
[24] = system: HCT-116 colon
[25] = system: ACHN renal
[26] = system: OVCAR-8 ovarian
[27] = system: TK-10 renal
[28] = system: NCI-H460 lung
[29] = system: M14 melanoma
[30] = system: RXF-631 renal
[31] = system: SNB-75 CNS
[32] = system: U251 CNS
[33] = system: CAKI-1 renal
[34] = system: NCI-H226 lung
[35] = system: SF-539 CNS
[36] = system: HCT-15 colon
[37] = system: HOP-92 NSCLC
[38] = system: SF-268 CNS
[39] = system: IGROV1 ovarian
[40] = system: SK-OV-3 ovarian
[41] = system: UACC-257 melanoma
[42] = system: PC-3 prostate
[43] = system: SN12C renal
[44] = system: A498 renal
[45] = system: HL-60(TB) leukemia
[46] = system: M19-MEL melanoma
[47] = system: SK-MEL-2 melanoma
[48] = system: CCRF-CEM leukemia
[49] = system: HT29 colon
[50] = system: UO-31 renal
[51] = system: DLD-1 colon
[52] = system: SNB-78 CNS
[53] = system: K-562 leukemia
[54] = system: EKVX NSCLC
[55] = system: SW-620 colon
[56] = system: 786-0 renal
[57] = system: HOP-62 NSCLC
[58] = system: OVCAR-3 ovarian
[59] = system: SF-295 CNS
[60] = system: MDA-N
[61] = system: MDA-MB-231 breast
[62] = system: MDA-MB-435
[63] = system: BT-549 breast
[64] = system: T-47D breast
[65] = system: HS 578T breast
[66] = system: XF 498 CNS
[67] = system: MCF7 breast
[68] = system: NCI/ADR-RES ovarian
[69] = system: SR leukemia

## O=C(O)/C=C/c1ccc(O)c(O)c1
[1]
  TGI: > 100 µM
[2]
  TGI: > 100 µM
[3]
  TGI: > 100 µM
[4]
  TGI: > 100 µM
[5]
  TGI: > 100 µM
[6]
  TGI: > 100 µM
[7]
  TGI: > 100 µM
[8]
  TGI: > 100 µM
[9]
  TGI: > 100 µM
[10]
  TGI: > 100 µM
[11]
  TGI: > 100 µM
[12]
  TGI: > 100 µM
[13]
  TGI: > 100 µM
[14]
  TGI: > 100 µM
[15]
  TGI: > 100 µM
[16]
  TGI: > 100 µM
[17]
  TGI: > 100 µM
[18]
  TGI: > 100 µM
[19]
  TGI: > 100 µM
[20]
  TGI: > 100 µM
[21]
  TGI: > 100 µM
[22]
  TGI: > 100 µM
[23]
  TGI: > 100 µM
[24]
  TGI: > 100 µM
[25]
  TGI: > 100 µM
[26]
  TGI: > 100 µM
[27]
  TGI: > 100 µM
[28]
  TGI: > 100 µM
[29]
  TGI: > 100 µM
[30]
  TGI: > 100 µM
[31]
  TGI: > 100 µM
[32]
  TGI: > 100 µM
[33]
  TGI: > 100 µM
[34]
  TGI: > 100 µM
[35]
  TGI: > 100 µM
[36]
  TGI: > 100 µM
[37]
  TGI: > 100 µM
[38]
  TGI: > 100 µM
[39]
  TGI: > 100 µM
[40]
  TGI: > 100 µM
[41]
  TGI: > 100 µM
[42]
  TGI: > 100 µM
[43]
  TGI: > 100 µM
[44]
  TGI: > 100 µM
[45]
  TGI: > 100 µM
[46]
  TGI: > 100 µM
[47]
  TGI: > 100 µM
[48]
  TGI: > 100 µM
[49]
  TGI: > 100 µM
[50]
  TGI: > 100 µM
[51]
  TGI: > 100 µM
[52]
  TGI: > 100 µM
[53]
  TGI: > 100 µM
[54]
  TGI: > 100 µM
[55]
  TGI: > 76.3 µM
[56]
  TGI: > 100 µM
[57]
  TGI: > 100 µM
[58]
  TGI: > 100 µM
[59]
  TGI: > 100 µM

## CS(=O)(=O)OCCN(CCOS(C)(=O)=O)c1ccc(C=Nc2ccc(-c3csc(COc4ccccc4)n3)cc2)cc1
[1]
  TGI: 6.98 µM
[2]
  TGI: 23.9 µM
[60]
  TGI: 31 µM
[3]
  TGI: 25.5 µM
[4]
  TGI: 15.6 µM
[61]
  TGI: 42.7 µM
[5]
  TGI: 1.85 µM
[62]
  TGI: 31.6 µM
[6]
  TGI: 14.2 µM
[7]
  TGI: 18.1 µM
[8]
  TGI: 14.5 µM
[9]
  TGI: 32.6 µM
[10]
  TGI: 7.59 µM
[11]
  TGI: 19.2 µM
[12]
  TGI: 19.8 µM
[13]
  TGI: 14 µM
[63]
  TGI: 37 µM
[64]
  TGI: > 51.8 µM
[14]
  TGI: 49.1 µM
[15]
  TGI: 12.6 µM
[16]
  TGI: 32.1 µM
[17]
  TGI: 23.4 µM
[18]
  TGI: 28.8 µM
[19]
  TGI: 0.868 µM
[20]
  TGI: 67.5 µM
[21]
  TGI: 19.8 µM
[22]
  TGI: 25.3 µM
[65]
  TGI: > 53.1 µM
[23]
  TGI: 14.7 µM
[24]
  TGI: 27.6 µM
[25]
  TGI: 2.32 µM
[66]
  TGI: 6.85 µM
[26]
  TGI: 19.6 µM
[27]
  TGI: 12.5 µM
[28]
  TGI: 2.1 µM
[67]
  TGI: 81.8 µM
[29]
  TGI: 28.1 µM
[31]
  TGI: 11.6 µM
[32]
  TGI: 25 µM
[33]
  TGI: 4.18 µM
[68]
  TGI: 49.7 µM
[34]
  TGI: 18.2 µM
[35]
  TGI: 14.7 µM
[36]
  TGI: 22.4 µM
[69]
  TGI: 15.5 µM
[37]
  TGI: 35 µM
[38]
  TGI: 14.6 µM
[39]
  TGI: 32.8 µM
[40]
  TGI: 12.2 µM
[41]
  TGI: 28.3 µM
[42]
  TGI: 28.2 µM
[43]
  TGI: 18.7 µM
[44]
  TGI: 7.48 µM
[45]
  TGI: 16.2 µM
[46]
  TGI: 36 µM
[47]
  TGI: 37.3 µM
[48]
  TGI: 35.6 µM
[49]
  TGI: 23.6 µM
[50]
  TGI: 2.93 µM
[51]
  TGI: 29.3 µM
[52]
  TGI: 66.4 µM
[53]
  TGI: > 76 µM
[54]
  TGI: 16.5 µM
[55]
  TGI: 52 µM
[56]
  TGI: 4.52 µM
[57]
  TGI: 10.1 µM
[58]
  TGI: 15.3 µM
[59]
  TGI: 17.8 µM

## Cc1ccc(S(=O)c2ccccc2[N+](=O)[O-])cc1 (configuration not stated)
[2]
  TGI: > 100 µM
[3]
  TGI: > 100 µM
[4]
  TGI: > 100 µM
[5]
  TGI: > 100 µM
[7]
  TGI: > 100 µM
[8]
  TGI: > 100 µM
[9]
  TGI: > 100 µM
[10]
  TGI: > 100 µM
[12]
  TGI: > 100 µM
[13]
  TGI: > 100 µM
[14]
  TGI: > 100 µM
[15]
  TGI: > 100 µM
[16]
  TGI: > 100 µM
[17]
  TGI: > 100 µM
[18]
  TGI: > 100 µM
[19]
  TGI: > 100 µM
[20]
  TGI: > 100 µM
[21]
  TGI: > 100 µM
[25]
  TGI: > 100 µM
[26]
  TGI: > 100 µM
[27]
  TGI: > 100 µM
[28]
  TGI: > 100 µM
[29]
  TGI: > 100 µM
[30]
  TGI: > 100 µM
[32]
  TGI: > 100 µM
[33]
  TGI: > 100 µM
[34]
  TGI: 85.9 µM
[35]
  TGI: > 100 µM
[36]
  TGI: > 100 µM
[69]
  TGI: > 100 µM
[37]
  TGI: > 100 µM
[39]
  TGI: > 100 µM
[40]
  TGI: > 100 µM
[41]
  TGI: > 100 µM
[43]
  TGI: > 100 µM
[44]
  TGI: 88.1 µM
[45]
  TGI: > 100 µM
[46]
  TGI: > 100 µM
[47]
  TGI: > 100 µM
[48]
  TGI: > 100 µM
[49]
  TGI: > 100 µM
[50]
  TGI: > 100 µM
[51]
  TGI: > 100 µM
[52]
  TGI: > 100 µM
[53]
  TGI: > 100 µM
[55]
  TGI: > 100 µM
[56]
  TGI: > 100 µM
[57]
  TGI: > 100 µM
[58]
  TGI: > 100 µM
[59]
  TGI: > 100 µM
